# Experimental data from patent publication US20090203577A1 (EXELIXIS, INC., priority 2005, published 2009).
# Where two headings read alike, the source gives them in different places.
# How the values were obtained:
# [1] = molecular target: T1, human farnesoid X receptor (Homo sapiens, UniProt Q96RI1); assay: FXR in vitro assays (farnesoid X receptor/ECREx7 co-transfection assay, TR-FRET assay), Table I; assay type: cell-based; conditions: for Emax: read-out: % Efficacy
# T1 construct: CMX-farnesoid X receptor (full length human farnesoid X receptor); expressed in transfected cells; host or cells: CV-1 African Green Monkey Kidney cells
# T1 sequence (Q96RI1 1-472 isoform Q96RI1-2): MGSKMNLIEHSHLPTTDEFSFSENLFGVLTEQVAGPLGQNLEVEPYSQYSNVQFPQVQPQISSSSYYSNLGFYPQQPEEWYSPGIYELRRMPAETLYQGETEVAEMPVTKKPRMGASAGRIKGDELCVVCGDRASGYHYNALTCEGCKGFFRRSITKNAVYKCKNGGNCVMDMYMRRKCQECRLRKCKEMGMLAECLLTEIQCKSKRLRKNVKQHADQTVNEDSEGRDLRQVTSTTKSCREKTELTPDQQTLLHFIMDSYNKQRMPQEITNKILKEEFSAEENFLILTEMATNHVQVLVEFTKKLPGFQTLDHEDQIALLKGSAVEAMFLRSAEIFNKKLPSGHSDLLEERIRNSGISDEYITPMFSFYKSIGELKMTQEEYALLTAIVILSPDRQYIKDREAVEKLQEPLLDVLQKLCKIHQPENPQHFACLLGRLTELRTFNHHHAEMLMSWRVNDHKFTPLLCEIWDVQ
# T1 sequence (P19793 1-462 partner): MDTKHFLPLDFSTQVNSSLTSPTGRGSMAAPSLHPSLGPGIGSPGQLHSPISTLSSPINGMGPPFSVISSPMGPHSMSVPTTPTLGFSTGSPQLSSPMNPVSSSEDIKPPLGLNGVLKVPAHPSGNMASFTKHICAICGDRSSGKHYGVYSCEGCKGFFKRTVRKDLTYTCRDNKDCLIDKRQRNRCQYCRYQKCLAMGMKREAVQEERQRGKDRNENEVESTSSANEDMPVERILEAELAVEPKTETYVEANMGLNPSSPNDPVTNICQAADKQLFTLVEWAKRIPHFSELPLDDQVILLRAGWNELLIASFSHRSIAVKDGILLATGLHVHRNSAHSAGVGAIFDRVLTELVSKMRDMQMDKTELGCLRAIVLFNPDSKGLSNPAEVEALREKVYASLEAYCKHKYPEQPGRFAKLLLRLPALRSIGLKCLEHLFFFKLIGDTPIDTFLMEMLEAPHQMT
# Outline: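 CV-1 monkey kidney cells transfected for an FXR/ECREx7 luciferase co-transfection reporter; luciferase read 18-20 h later in lysates. 8-point dose-response at ½-log spacing, 4 wells per point; EC50/IC50 from four-parameter Hill fit, averaged over at least 3 independent experiments.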
# physchem = conditions: pH 7.4, aqueous buffer, kinetic from dmso stock
# Procedure: The kinetic solubility of test compounds in buffer was evaluated using a 96 well filtration plate format. A 500 μM assay solution in PBS, pH7.4 (or other assay buffer, as needed) was generated form a DMSO stock solution (up to 10 mM). Samples were transferred to a 96 Millipore MultiScreen HTS 96-well Filter plate (Cat# MSSLBPC10) mixed by shaking for 1.5 hours and processed by filtration prior to quantitation by HPLC-UV. Amiodarone and testosterone were used as reference controls.
# [2] = agonist activity, one or more of the in vitro assays, read-out: EC50
Compound,"EC50 [1, 2] [nM]",Emax [1] [%],solubility kinetic at 1.5 h (physchem) [µM],EC50 [1] [nM]
CC(C)OC(=O)C1=CN(C(=O)N2CCC[C@H](CN3CCCCC3)C2)CC(C)(C)c2c1[nH]c1ccccc21 [Example 58],1000 to 10000,80 to 100,> 10,
"CC(C)OC(=O)C1=CN(C(=O)N2CCC[C@@H](N3CCCCC3)C2)CC(C)(C)c2c1[nH]c1ccccc21 [Example 60, 1-methylethyl 3-[(3′R)-1,3′-bipiperidin-1′-ylcarbonyl]-1,1-dimethyl-1,2,3,6-tetrahydroazepino[4,5-b]indole-5-carboxylate]",1000 to 10000,60 to 80,> 10,
"CC(C)OC(=O)C1=CN(C(=O)c2ccccc2C(F)(F)F)CC(C)(C)c2c1[nH]c1ccccc21 [Example 64, 1-methylethyl 1,1-dimethyl-3-{[2-(trifluoromethyl)phenyl]-carbonyl}-1,2,3,6-tetrahydroazepino[4,5-b]indole-5-carboxylate]",10 to 100,> 100,1 to 10,
"CC(C)OC(=O)C1=CN(C(=O)c2ccccc2Br)CC(C)(C)c2c1[nH]c1ccccc21 [Example 67, 1-methylethyl 3-[(2-bromophenyl)carbonyl]-1,1-dimethyl-1,2,3,6-tetrahydroazepino[4,5-b]indole-5-carboxylate]",10 to 100,> 100,1 to 10,
"CC(C)OC(=O)C1=CN(C(=O)c2ccccc2OC(F)(F)F)CC(C)(C)c2c1[nH]c1ccccc21 [Example 70, 1-methylethyl 1,1-dimethyl-3-({2-[(trifluoromethyl)oxy]phenyl}carbonyl)-1,2,3,6-tetrahydroazepino[4,5-b]indole-5-carboxylate]",100 to 1000,> 100,1 to 10,
"CC(C)OC(=O)C1=CN(C(=O)c2cccc(F)c2)CC(C)(C)c2c1[nH]c1ccccc21 [Example 72, 1-methylethyl 3-[(3-fluorophenyl)carbonyl]-1,1-dimethyl-1,2,3,6-tetrahydroazepino[4,5-b]indole-5-carboxylate]",1 to 10,> 100,1 to 10,
"CC(C)OC(=O)C1=CN(C(=O)c2ccc3c(c2)OCO3)CC(C)(C)c2c1[nH]c1ccccc21 [Example 80, 1-methylethyl 3-(1,3-benzodioxol-5-ylcarbonyl)-1,1-dimethyl-1,2,3,6-tetrahydroazepino[4,5-b]indole-5-carboxylate]",10 to 100,> 100,1 to 10,
"CC(C)OC(=O)C1=CN(C(=O)c2cccc(Cl)c2)CC(C)(C)c2c1[nH]c1ccccc21 [Example 81, 1-methylethyl 3-[(3-chlorophenyl)carbonyl]-1,1-dimethyl-1,2,3,6-tetrahydroazepino[4,5-b]indole-5-carboxylate]",10 to 100,> 100,1 to 10,
"CC(C)OC(=O)C1=CN(C(=O)c2ccc(Cl)cc2)CC(C)(C)c2c1[nH]c1ccccc21 [Example 82, 1-methylethyl 3[(4-chlorophenyl)carbonyl]-1,1-dimethyl-1,2,3,6-tetrahydroazepino[4,5-b]indole-5-carboxylate]",10 to 100,> 100,1 to 10,
"CC(C)OC(=O)C1=CN(C(=O)c2ccc(F)c(C(F)(F)F)c2)CC(C)(C)c2c1[nH]c1ccccc21 [Example 83, 1-methylethyl 3-{[4-fluoro-3-(trifluoromethyl)phenyl]car-bonyl}-1,1-dimethyl-1,2,3,6-tetrahydroazepino[4,5-b]indole-5-carboxylate]",10 to 100,> 100,1 to 10,
"Cc1cccc(C(=O)N2C=C(C(=O)OC(C)C)c3[nH]c4ccccc4c3C(C)(C)C2)c1 [Example 86, 1-methylethyl 1,1-dimethyl-3-[(3-methylphenyl)carbonyl]-1,2,3,6-tetrahydroazepino[4,5-b]indole-5-carboxylate]",1 to 10,> 100,1 to 10,
"CC(C)NC(=O)C1CN(C(=O)c2ccc(F)c(F)c2)CC(C)(C)c2c1[nH]c1ccccc21 (stereo not drawn) [Example 90, 3-[(3,4-difluorophenyl)carbonyl]-1,1-dimethyl-N-(1-methylethyl)-1,2,3,4,5,6-hexahydroazepino[4,5-b]indole-5-carboxamide]",1000 to 10000,> 100,> 10,
"CC(C)OC(=O)C1=CN(C(=O)c2ccc(F)c(F)c2)CC(C)(C)c2c1[nH]c1cc(OC(=O)NCCN(C)C)ccc21 [Example 93, 1-methylethyl 3-[(3,4-difluorophenyl)carbonyl]-8-[({[2-(dimethylamino)ethyl]amino}carbonyl)oxy]-1,1-dimethyl-1,2,3,6-tetrahydroazepino[4,5-b]indole-5-carboxylate]",,> 100,> 10,10 to 100
"CC(C)OC(=O)C1=CN(C(=O)c2ccc(F)c(F)c2)CC(C)(C)c2c1[nH]c1cc(OC(=O)OC(C)(C)C)ccc21 [Example 96, 1-methylethyl 3-[(3,4-difluorophenyl)carbonyl]-8-({[(1,1-dimethylethyl)oxy]carbonyl}oxy)-1,1-dimethyl-1,2,3,6-tetrahydroazepino[4,5-b]indole-5-carboxylate]",10 to 100,> 100,1 to 10,
"CC(C)OC(=O)C1=CN(C(=O)c2cccc(OCc3ccccc3)c2)CC(C)(C)c2c1[nH]c1ccccc21 [Example 127, 1-methylethyl 1,1-dimethyl-3-({3-[(phenylmethyl)oxy]phenyl}carbonyl)-1,2,3,6-tetrahydroazepino[4,5-b]indole-5-carboxylate]",10 to 100,> 100,1 to 10,
"Cc1ccc(C(=O)N2C=C(C(=O)OC(C)C)c3[nH]c4ccccc4c3C(C)(C)C2)cc1F [Example 130, 1-methylethyl 3-[(3-fluoro-4-methylphenyl)carbonyl]-1,1-dimethyl-1,2,3,6-tetrahydroazepino[4,5-b]indole-5-carboxylate]",10 to 100,> 100,1 to 10,
"CC(C)OC(=O)C1=CN(C(=O)c2ccc(C(F)(F)F)cc2F)CC(C)(C)c2c1[nH]c1ccccc21 [Example 131, 1-methylethyl 3-{[2-fluoro-4-(trifluoromethyl)phenyl]car-bonyl}-1,1-dimethyl-1,2,3,6-tetrahydroazepino[4,5-b]indole-5-carboxylate]",100 to 1000,> 100,> 10,
"CC(C)OC(=O)C1=CN(C(=O)c2ccc(C(F)(F)F)c(Cl)c2F)CC(C)(C)c2c1[nH]c1ccccc21 [Example 132, 1-methylethyl 3-{[3-chloro-2-fluoro-4-(trifluoromethyl)phenyl]car-bonyl}-1,1-dimethyl-1,2,3,6-tetrahydroazepino[4,5-b]indole-5-carboxylate]",100 to 1000,> 100,1 to 10,
"CC(C)OC(=O)C1=CN(C(=O)c2cc(F)cc(C(F)(F)F)c2)CC(C)(C)c2c1[nH]c1ccccc21 [Example 134, 1-methylethyl 3-{[3-fluoro-5-(trifluoromethyl)phenyl]car-bonyl}-1,1-dimethyl-1,2,3,6-tetrahydroazepino[4,5-b]indole-5-carboxylate]",10 to 100,> 100,1 to 10,
"CC(C)OC(=O)C1=CN(C(=O)c2cc(C(F)(F)F)cc(C(F)(F)F)c2)CC(C)(C)c2c1[nH]c1ccccc21 [Example 135, 1-methylethyl 3-{[3,5-bis(trifluoromethyl)phenyl]carbonyl}-1,1-dimethyl-1,2,3,6-tetrahydroazepino[4,5-b]indole-5-carboxylate]",10 to 100,> 100,1 to 10,
"CC(C)OC(=O)C1=CN(C(=O)c2cc(C(F)(F)F)ccc2C(F)(F)F)CC(C)(C)c2c1[nH]c1ccccc21 [Example 137, 1-methylethyl 3-{[2,5-bis(trifluoromethyl)phenyl]carbonyl}-1,1-dimethyl-1,2,3,6-tetrahydroazepino[4,5-b]indole-5-carboxylate]",100 to 1000,> 100,0.1 to 1,
